Data as given in publication doi:10.1101/2023.05.23.541938v1, “Exploring the Chain Release Mechanism from an Atypical Apicomplexan Polyketide Synthase” (biorxiv, 2023).

Experiments:
[1] = target: T1, TgTR (TgPKS2 thioester reductase domain) (Toxoplasma gondii, UniProt Z9O203Q0F3); test: thermal shift assay (SYPRO orange); assay type: binding; conditions: 1 mM compound, 3 µM TgTR, 10 mM Tris-HCl pH 8.0, 50 mM NaCl, 5% glycerol
T1 construct: isolated C-terminal thioester reductase (TR) domain of TgPKS2; E. coli codon optimized, expressed in E. coli BL21(DE3) with GroES/EL-TF chaperones

[2] = target: T1, TgTR (TgPKS2 thioester reductase domain); test: isothermal titration calorimetry; assay type: binding; conditions: 25 mM Tris-HCl pH 7.6, 25 mM NaCl, N fixed at 1
[3] = system: TgTR (TgPKS2 thioester reductase domain); conditions: saturating octanal (2.5 mM) and NADH; N147T in domain numbering

Structure (SMILES)	Tm shift [1]	Kd ([2]; no other ligand)	Kd ([2]; excess NADH (1 mM))	NADH fluorescence consumption assay, single-point relative rate [3]
NC(=O)C1=CN([C@@H]2O[C@H](COP(=O)(O)OP(=O)(O)OC[C@H]3O[C@@H](n4cnc5c(N)ncnc54)[C@H](O)[C@@H]3O)[C@@H](O)[C@H]2O)C=CC1 [NADH]	NADH, octanoyl-CoA, and octanal increased the TgTR Tm compared to the DMSO control	7.64 ± 0.59 µM	–	–
CCCCCCCC=O [octanal]	NADH, octanoyl-CoA, and octanal increased the TgTR Tm compared to the DMSO control	–	146 ± 31 µM	no significant change was observed with octanal
CCCCCCCC(=O)SCCNC(=O)CCNC(=O)[C@H](O)C(C)(C)COP(=O)(O)OP(=O)(O)OC[C@H]1O[C@@H](n2cnc3c(N)ncnc32)[C@H](O)[C@@H]1OP(=O)(O)O [octanoyl-CoA]	NADH, octanoyl-CoA, and octanal increased the TgTR Tm compared to the DMSO control	–	89.6 ± 3.9 µM	–
